From patent US11813340B2, “PSMA targeted radiohalogenated urea-polyaminocarboxylates for cancer radiotherapy” (The Johns Hopkins University, priority 2018, dated 2023)
Like-named read-outs stand apart in the source and are kept apart here.

Tested on: PSMA+PC3-PIP and PSMA-PC3-flu flank xenografts
Procedure: Final compounds were purified by HPLC. […] Organs were harvested 1, 4, and 24 h post-injection (n=5 per time point).

[1] = 1-hour, Blocker VK-02-90 0.5 nmole
[2] = 1-hour, Blocker VK-02-90 1.0 nmole
[3] = 1-hour, Blocker VK-02-90 5.0 nmole
[4] = 1-hour, Blocker YC-I-27 0.5 nmole
[5] = 1-hour, Blocker YC-I-27 1.0 nmole
[6] = 1-hour, Blocker YC-I-27 5 nmole
[7] = 4-hr, Blocker VK-02-90 0.5 nmole
[8] = 4-hr, Blocker VK-02-90 1.0 nmole
[9] = 4-hr, Blocker VK-02-90 5.0 nmole
[10] = 4-hr, Blocker YC-I-27 0.5 nmole
[11] = 4-hr, Blocker YC-I-27 1.0 nmole
[12] = 24-hour, Blocker VK-02-90 0.5 nmole
[13] = 24-hour, Blocker VK-02-90 1.0 nmole
[14] = 24-hour, Blocker VK-02-90 5.0 nmole
[15] = 24-hour, Blocker YC-I-27 0.5 nmole
[16] = 24-hour, Blocker YC-I-27 1.0 nmole
[17] = 24-hour, Blocker YC-I-27 5 nmole

O=C([O-])CN1CCN(CC(=O)[O-])CCN(CC(=O)NCCCCC(=O)N(CCCC[C@H](NC(=O)N[C@@H](CCC(=O)O)C(=O)O)C(=O)O)Cc2ccc([125I])cc2)CCN(CC(=O)[O-])CC1.[Lu+3] [[^125I]VK-02-90-Lu]
Biodistribution, Blood (1-hour, Blocker None): 1.1 ± 0.1 % injected dose/g | Biodistribution, Flu tumor (1-hour, Blocker None): 1.0 ± 0.2 % injected dose/g | Biodistribution, Kidneys (1-hour, Blocker None): 129 ± 15 % injected dose/g | Biodistribution, Lacrimal glands (1-hour, Blocker None): 2.1 ± 0.9 % injected dose/g | Biodistribution, PIP tumor (1-hour, Blocker None): 26.0 ± 3.0 % injected dose/g | Biodistribution, Salivary glands (1-hour, Blocker None): 2.3 ± 0.5 % injected dose/g | Biodistribution, Spleen (1-hour, Blocker None): 4.3 ± 0.9 % injected dose/g | Biodistribution, Stomach (1-hour, Blocker None): 1.7 ± 0.3 % injected dose/g | Biodistribution, Blood [1]: 0.4 ± 0.1 % injected dose/g | Biodistribution, Flu tumor [1]: 0.6 ± 0.3 % injected dose/g | Biodistribution, Kidneys [1]: 9.9 ± 2.5 % injected dose/g | Biodistribution, Lacrimal glands [1]: 0.4 ± 0.1 % injected dose/g | Biodistribution, PIP tumor [1]: 36.7 ± 6.8 % injected dose/g | Biodistribution, Salivary glands [1]: 0.2 ± 0.03 % injected dose/g | Biodistribution, Spleen [1]: 1.1 ± 0.4 % injected dose/g | Biodistribution, Stomach [1]: 0.2 ± 0.1 % injected dose/g | Biodistribution, Blood [2]: 0.4 ± 0.1 % injected dose/g | Biodistribution, Flu tumor [2]: 0.5 ± 0.1 % injected dose/g | Biodistribution, Kidneys [2]: 6.5 ± 0.9 % injected dose/g | Biodistribution, Lacrimal glands [2]: 0.4 ± 0.1 % injected dose/g | Biodistribution, PIP tumor [2]: 35.1 ± 9.0 % injected dose/g | Biodistribution, Salivary glands [2]: 0.2 ± 0.06 % injected dose/g | Biodistribution, Spleen [2]: 1.1 ± 0.4 % injected dose/g | Biodistribution, Stomach [2]: 0.2 ± 0.04 % injected dose/g | Biodistribution, Blood [3]: 0.5 ± 0.1 % injected dose/g | Biodistribution, Flu tumor [3]: 0.9 ± 0.3 % injected dose/g | Biodistribution, Kidneys [3]: 4.2 ± 0.5 % injected dose/g | Biodistribution, Lacrimal glands [3]: 0.4 ± 0.03 % injected dose/g | Biodistribution, PIP tumor [3]: 23.5 ± 4.3 % injected dose/g | Biodistribution, Salivary glands [3]: 0.3 ± 0.1 % injected dose/g | Biodistribution, Spleen [3]: 0.7 ± 0.2 % injected dose/g | Biodistribution, Stomach [3]: 0.2 ± 0.06 % injected dose/g | Biodistribution, Blood [4]: 1.1 ± 0.1 % injected dose/g | Biodistribution, Flu tumor [4]: 1.0 ± 0.3 % injected dose/g | Biodistribution, Kidneys [4]: 4.2 ± 1.3 % injected dose/g | Biodistribution, Lacrimal glands [4]: 0.5 ± 0.1 % injected dose/g | Biodistribution, PIP tumor [4]: 41.8 ± 4.2 % injected dose/g | Biodistribution, Salivary glands [4]: 3.2 ± 0.7 % injected dose/g | Biodistribution, Spleen [4]: 0.8 ± 0.2 % injected dose/g | Biodistribution, Stomach [4]: 1.8 ± 0.2 % injected dose/g | Biodistribution, Blood [5]: 1.0 ± 0.1 % injected dose/g | Biodistribution, Flu tumor [5]: 0.8 ± 0.2 % injected dose/g | Biodistribution, Kidneys [5]: 2.4 ± 0.8 % injected dose/g | Biodistribution, Lacrimal glands [5]: 0.6 ± 0.05 % injected dose/g | Biodistribution, PIP tumor [5]: 29.1 ± 2.4 % injected dose/g | Biodistribution, Salivary glands [5]: 2.9 ± 0.4 % injected dose/g | Biodistribution, Spleen [5]: 0.6 ± 0.1 % injected dose/g | Biodistribution, Stomach [5]: 1.8 ± 0.3 % injected dose/g | Biodistribution, Blood [6]: 1.1 ± 0.2 % injected dose/g | Biodistribution, Flu tumor [6]: 0.8 ± 0.2 % injected dose/g | Biodistribution, Kidneys [6]: 2.3 ± 0.7 % injected dose/g | Biodistribution, Lacrimal glands [6]: 1.1 ± 0.6 % injected dose/g | Biodistribution, PIP tumor [6]: 20.1 ± 2.8 % injected dose/g | Biodistribution, Salivary glands [6]: 5.1 ± 1.7 % injected dose/g | Biodistribution, Spleen [6]: 0.7 ± 0.1 % injected dose/g | Biodistribution, Stomach [6]: 2.2 ± 0.7 % injected dose/g | Biodistribution, Blood (4-hr, Blocker None): 0.3 ± 0.2 % injected dose/g | Biodistribution, Flu tumor (4-hr, Blocker None): 0.25 ± 0.1 % injected dose/g | Biodistribution, Kidneys (4-hr, Blocker None): 9.5 ± 2.5 % injected dose/g | Biodistribution, Lacrimal glands (4-hr, Blocker None): 0.4 ± 0.2 % injected dose/g | Biodistribution, PIP tumor (4-hr, Blocker None): 27.4 ± 7.5 % injected dose/g | Biodistribution, Salivary glands (4-hr, Blocker None): 1.8 ± 0.2 % injected dose/g | Biodistribution, Spleen (4-hr, Blocker None): 0.6 ± 0.2 % injected dose/g | Biodistribution, Stomach (4-hr, Blocker None): 0.8 ± 0.5 % injected dose/g | Biodistribution, Blood [7]: 0.02 ± 0.01 % injected dose/g | Biodistribution, Flu tumor [7]: 0.1 ± 0.02 % injected dose/g | Biodistribution, Kidneys [7]: 2.1 ± 0.7 % injected dose/g | Biodistribution, Lacrimal glands [7]: 0.1 ± 0.03 % injected dose/g | Biodistribution, PIP tumor [7]: 24.8 ± 2.0 % injected dose/g | Biodistribution, Salivary glands [7]: 0.08 ± 0.04 % injected dose/g | Biodistribution, Spleen [7]: 0.2 ± 0.1 % injected dose/g | Biodistribution, Stomach [7]: 0.06 ± 0.01 % injected dose/g | Biodistribution, Blood [8]: 0.2 ± 0.01 % injected dose/g | Biodistribution, Flu tumor [8]: 0.1 ± 0.03 % injected dose/g | Biodistribution, Kidneys [8]: 1.4 ± 0.4 % injected dose/g | Biodistribution, Lacrimal glands [8]: 0.1 ± 0.05 % injected dose/g | Biodistribution, PIP tumor [8]: 27.1 ± 3.6 % injected dose/g | Biodistribution, Salivary glands [8]: 0.1 ± 0.02 % injected dose/g | Biodistribution, Spleen [8]: 0.2 ± 0.1 % injected dose/g | Biodistribution, Stomach [8]: 0.1 ± 0.03 % injected dose/g | Biodistribution, Blood [9]: 0 % injected dose/g | Biodistribution, Flu tumor [9]: 0.1 ± 0.01 % injected dose/g | Biodistribution, Kidneys [9]: 0.9 ± 0.3 % injected dose/g | Biodistribution, Lacrimal glands [9]: 0.1 ± 0.1 % injected dose/g | Biodistribution, PIP tumor [9]: 18.8 ± 2.0 % injected dose/g | Biodistribution, Salivary glands [9]: 0.05 ± 0.02 % injected dose/g | Biodistribution, Spleen [9]: 0.15 ± 0.08 % injected dose/g | Biodistribution, Stomach [9]: 0.1 ± 0.04 % injected dose/g | Biodistribution, Blood [10]: 0.4 ± 0.06 % injected dose/g | Biodistribution, Flu tumor [10]: 0.3 ± 0.1 % injected dose/g | Biodistribution, Kidneys [10]: 0.9 ± 0.1 % injected dose/g | Biodistribution, Lacrimal glands [10]: 0.2 ± 0.02 % injected dose/g | Biodistribution, PIP tumor [10]: 24.0 ± 3.2 % injected dose/g | Biodistribution, Salivary glands [10]: 3.3 ± 0.8 % injected dose/g | Biodistribution, Spleen [10]: 0.25 ± 0.07 % injected dose/g | Biodistribution, Stomach [10]: 1.3 ± 0.2 % injected dose/g | Biodistribution, Blood [11]: 0.4 ± 0.05 % injected dose/g | Biodistribution, Flu tumor [11]: 0.3 ± 0.1 % injected dose/g | Biodistribution, Kidneys [11]: 0.6 ± 0.03 % injected dose/g | Biodistribution, Lacrimal glands [11]: 0.2 ± 0.03 % injected dose/g | Biodistribution, PIP tumor [11]: 23.8 ± 1.1 % injected dose/g | Biodistribution, Salivary glands [11]: 3.2 ± 0.7 % injected dose/g | Biodistribution, Spleen [11]: 0.2 ± 0.04 % injected dose/g | Biodistribution, Stomach [11]: 1.2 ± 0.2 % injected dose/g | Biodistribution, Blood (4-hr, Blocker YC-I-27 5 nmole): 0.4 ± 0.1 % injected dose/g | Biodistribution, Flu tumor (4-hr, Blocker YC-I-27 5 nmole): 0.3 ± 0.1 % injected dose/g | Biodistribution, Kidneys (4-hr, Blocker YC-I-27 5 nmole): 0.7 ± 0.1 % injected dose/g | Biodistribution, Lacrimal glands (4-hr, Blocker YC-I-27 5 nmole): 0.5 ± 0.5 % injected dose/g | Biodistribution, Salivary glands (4-hr, Blocker YC-I-27 5 nmole): 5.0 ± 1.4 % injected dose/g | Biodistribution, Spleen (4-hr, Blocker YC-I-27 5 nmole): 0.3 ± 0.06 % injected dose/g | Biodistribution, Stomach (4-hr, Blocker YC-I-27 5 nmole): 1.6 ± 0.4 % injected dose/g | Biodistribution, Blood (24-hour, Blocker None): 0 % injected dose/g | Biodistribution, Flu tumor (24-hour, Blocker None): 0.05 ± 0.01 % injected dose/g | Biodistribution, Kidneys (24-hour, Blocker None): 1.3 ± 0.7 % injected dose/g | Biodistribution, Lacrimal glands (24-hour, Blocker None): 0.05 ± 0.04 % injected dose/g | Biodistribution, PIP tumor (24-hour, Blocker None): 18.0 ± 6.0 % injected dose/g | Biodistribution, Salivary glands (24-hour, Blocker None): 0.2 ± 0.08 % injected dose/g | Biodistribution, Spleen (24-hour, Blocker None): 0.1 ± 0.05 % injected dose/g | Biodistribution, Stomach (24-hour, Blocker None): 0.1 ± 0.04 % injected dose/g | Biodistribution, Blood [12]: 0.1 ± 0.01 % injected dose/g | Biodistribution, Flu tumor [12]: 0.04 ± 0.01 % injected dose/g | Biodistribution, Kidneys [12]: 0.5 ± 0.2 % injected dose/g | Biodistribution, Lacrimal glands [12]: 0.03 ± 0.02 % injected dose/g | Biodistribution, PIP tumor [12]: 16.3 ± 4.2 % injected dose/g | Biodistribution, Salivary glands [12]: 0.02 ± 0.01 % injected dose/g | Biodistribution, Spleen [12]: 0.04 ± 0.01 % injected dose/g | Biodistribution, Stomach [12]: 0.04 ± 0.04 % injected dose/g | Biodistribution, Blood [13]: 0 % injected dose/g | Biodistribution, Flu tumor [13]: 0.03 ± 0.01 % injected dose/g | Biodistribution, Kidneys [13]: 0.4 ± 0.1 % injected dose/g | Biodistribution, Lacrimal glands [13]: 0 % injected dose/g | Biodistribution, Salivary glands [13]: 0 % injected dose/g | Biodistribution, Spleen [13]: 0 % injected dose/g | Biodistribution, Stomach [13]: 0.03 ± 0.02 % injected dose/g | Biodistribution, Blood [14]: 0 % injected dose/g | Biodistribution, Flu tumor [14]: 0.02 ± 0.01 % injected dose/g | Biodistribution, Kidneys [14]: 0.2 ± 0.2 % injected dose/g | Biodistribution, Lacrimal glands [14]: 0.01 ± 0.03 % injected dose/g | Biodistribution, Salivary glands [14]: 0.01 ± 0.01 % injected dose/g | Biodistribution, Spleen [14]: 0.01 ± 0.03 % injected dose/g | Biodistribution, Stomach [14]: 0.04 ± 0.03 % injected dose/g | Biodistribution, Blood [15]: 0.03 ± 0.03 % injected dose/g | Biodistribution, Flu tumor [15]: 0.04 ± 0.02 % injected dose/g | Biodistribution, Kidneys [15]: 0.1 ± 0.05 % injected dose/g | Biodistribution, Lacrimal glands [15]: 0.03 ± 0.04 % injected dose/g | Biodistribution, PIP tumor [15]: 13.4 ± 3.8 % injected dose/g | Biodistribution, Salivary glands [15]: 0.6 ± 0.5 % injected dose/g | Biodistribution, Spleen [15]: 0.02 ± 0.02 % injected dose/g | Biodistribution, Stomach [15]: 0.1 ± 0.1 % injected dose/g | Biodistribution, Blood [16]: 0.02 ± 0.01 % injected dose/g | Biodistribution, Flu tumor [16]: 0.03 ± 0.01 % injected dose/g | Biodistribution, Lacrimal glands [16]: 0.02 ± 0.02 % injected dose/g | Biodistribution, Salivary glands [16]: 0.4 ± 0.2 % injected dose/g | Biodistribution, Spleen [16]: 0.04 ± 0.02 % injected dose/g | Biodistribution, Stomach [16]: 0.08 ± 0.03 % injected dose/g | Biodistribution, Blood [17]: 0.02 ± 0.01 % injected dose/g | Biodistribution, Flu tumor [17]: 0.03 ± 0.01 % injected dose/g | Biodistribution, Kidneys [17]: 0.05 ± 0.02 % injected dose/g | Biodistribution, Lacrimal glands [17]: 0.01 ± 0.02 % injected dose/g | Biodistribution, PIP tumor [17]: 6.6 ± 3.2 % injected dose/g | Biodistribution, Salivary glands [17]: 0.4 ± 0.1 % injected dose/g | Biodistribution, Spleen [17]: 0.01 ± 0.03 % injected dose/g | Biodistribution, Stomach [17]: 0.07 ± 0.1 % injected dose/g
